Source: paper PMC8715118, “Assessing potentiation of the (α4)3(β2)2 nicotinic acetylcholine receptor by the allosteric agonist CMPI” (The Journal of Biological Chemistry, 2021)
Like-named read-outs stand apart in the source and are kept apart here.

Columns and labels:
Type in all cases: cell-based
(α4H116L)3(β2)2 nAChR = biological target: T1, (α4H116L)3(β2)2 nAChR (Homo sapiens, UniProt P17787+P43681, H142L); test: Two-electrode voltage-clamp, oocytes expressing (α4H116L)3(β2)2 nAChR
T1 construct: expressed in transfected cells; host or cells: Xenopus laevis oocytes injected with cRNA, 8:1 α4:β2
Description: (§1) Oocytes-positive female Xenopus laevis were purchased from NASCO, and all procedures were performed according to an animal use protocol approved by the Institutional Animals Care and Use Committee of The University of Texas Health Science Center at Tyler. Ovarian lobules were surgically harvested, treated with collagenase type 2, and Stage V and VI oocytes were visually selected and maintained at 18 °C in modified ND96-gentamicin buffer (96 mM NaCl, 2 mM KCl, 1.8 mM CaCl2, 1 mM MgCl2, 5 mM Hepes, and 50 μg/ml gentamicin, pH 7.6).
(§2) pSP64 Poly(A) plasmids with cDNA encoding for human α4 or β2 nAChR subunit were used to prepare cRNA transcripts suitable for oocyte expression. The plasmids were linearized with AseI (hα4) and PvuII (hβ2), then cRNA transcripts were prepared in vitro using mMESSAGE mMACHINE high yield-capped RNA transcription kits (Ambion, Thermo Fisher Scientific), purified on NucAway Spin column (Invitrogen, Thermo Fisher Scientific), and stored at −80 °C until used. Point mutations within the plasmid encoding the α4 nAChR subunit were introduced using QuikChange II Site-Directed Mutagenesis Kit (Agilent Technologies), as described previously ([28]). To generate amino acid substitutions (K64T, E66I, H116V, H116L, and H116A), two custom-designed complementary oligos containing the desired mutation were used (Integrated DNA Technologies). The forward primers were as the following with the codon for mutated amino acids are underlined and nucleotide(s) changes are bolded and italicized:
(§3) The oocytes were injected with 10 to 50 ng of a cRNA mix containing α4 (WT or mutant) and β2 RNAs at ratios of 8:1(α4:β) or 1:8 (α4:β2) to bias expression toward (α4)3(β2)2 or (α4)2(β2)3 nAChRs, respectively. The injection of oocytes with RNAs mixture containing four folds or higher α4 RNA than β2 RNA have been established to express receptor population that is made up of three α4 and two β2 subunits ([9], [12], [28], [43], [44], [45]).
(§4) 24 to 72 h after cRNA injection, Xenopus oocytes were placed in a custom-made recording chamber that is connected to an eight-channel automated perfusion system (Warner Instruments) and perfused with recording buffer (100 mM NaCl, 2 mM KCl, 1 mM CaCl2, 0.8 mM MgCl2, 1 mM EGTA, and 10 mM Hepes, pH 7.5). Unless otherwise specified in figure legends, each recording run included several drug applications (10 s of an agonist with or without CMPI or NS9283) separated by 3 to 4 min buffer wash intervals. Between recording runs, the oocytes were washed with recording buffer for at last 5 min. […] The currents were digitized using Digidata 1550A (Axon Instruments, Molecular Devices), and the peak currents were quantified using pCLAMP 10 (Axon Instruments), then normalized and analyzed using Excel 2010 (Microsoft) and SigmaPlot 11.0 (Systat Software). […]

(α4)3(β2)2 nAChR = biological target: T2, (α4)3(β2)2 nAChR (Homo sapiens, UniProt P17787+P43681); test: Two-electrode voltage-clamp whole-cell currents, Xenopus oocytes expressing WT (α4)3(β2)2 nAChR
T2 construct: expressed in transfected cells; host or cells: Xenopus laevis oocytes injected with cRNA, 8:1 α4:β2
Description: as §1, §2, §3
(§5) 24 to 72 h after cRNA injection, Xenopus oocytes were placed in a custom-made recording chamber that is connected to an eight-channel automated perfusion system (Warner Instruments) and perfused with recording buffer (100 mM NaCl, 2 mM KCl, 1 mM CaCl2, 0.8 mM MgCl2, 1 mM EGTA, and 10 mM Hepes, pH 7.5). Unless otherwise specified in figure legends, each recording run included several drug applications (10 s of an agonist with or without CMPI or NS9283) separated by 3 to 4 min buffer wash intervals. Between recording runs, the oocytes were washed with recording buffer for at last 5 min. The oocytes were voltage-clamped at −50 mV using Oocyte Clamp OC-725B (Warner Instruments). The currents were digitized using Digidata 1550A (Axon Instruments, Molecular Devices), and the peak currents were quantified using pCLAMP 10 (Axon Instruments), then normalized and analyzed using Excel 2010 (Microsoft) and SigmaPlot 11.0 (Systat Software). For NS9283 and CMPI potentiation of agonist-induced responses, the peak currents were normalized to current elicited by agonist alone applied within the same recording run. For the effect of coapplication of 1 μM NS9283 or CMPI on agonist concentration-response curve, the peak currents were normalized to current elicited by saturating concentration of agonist applied within the same recording run. […] I0 = 100 for NS9283 and CMPI potentiation of agonist-induced responses and I0 = 0 for agonist concentration-response experiments. The best-fit values for Imax and EC50 ± SD are presented.

(α4H116V)3(β2)2 nAChR = biological target: T3, (α4H116V)3(β2)2 nAChR (Homo sapiens, UniProt P17787+P43681, H142V); test: Two-electrode voltage-clamp, oocytes expressing (α4H116V)3(β2)2 nAChR
T3 construct: expressed in transfected cells; host or cells: Xenopus laevis oocytes injected with cRNA, 8:1 α4:β2
Description: as §1, §2, §3, §4

(α4H116A)3(β2)2 nAChR = biological target: T4, (α4H116A)3(β2)2 nAChR (Homo sapiens, UniProt P17787+P43681, H142A); test: Two-electrode voltage-clamp, oocytes expressing (α4H116A)3(β2)2 nAChR
T4 construct: expressed in transfected cells; host or cells: Xenopus laevis oocytes injected with cRNA, 8:1 α4:β2
Description: as §1, §2, §3, §5

T2 sequence (P43681 27-627): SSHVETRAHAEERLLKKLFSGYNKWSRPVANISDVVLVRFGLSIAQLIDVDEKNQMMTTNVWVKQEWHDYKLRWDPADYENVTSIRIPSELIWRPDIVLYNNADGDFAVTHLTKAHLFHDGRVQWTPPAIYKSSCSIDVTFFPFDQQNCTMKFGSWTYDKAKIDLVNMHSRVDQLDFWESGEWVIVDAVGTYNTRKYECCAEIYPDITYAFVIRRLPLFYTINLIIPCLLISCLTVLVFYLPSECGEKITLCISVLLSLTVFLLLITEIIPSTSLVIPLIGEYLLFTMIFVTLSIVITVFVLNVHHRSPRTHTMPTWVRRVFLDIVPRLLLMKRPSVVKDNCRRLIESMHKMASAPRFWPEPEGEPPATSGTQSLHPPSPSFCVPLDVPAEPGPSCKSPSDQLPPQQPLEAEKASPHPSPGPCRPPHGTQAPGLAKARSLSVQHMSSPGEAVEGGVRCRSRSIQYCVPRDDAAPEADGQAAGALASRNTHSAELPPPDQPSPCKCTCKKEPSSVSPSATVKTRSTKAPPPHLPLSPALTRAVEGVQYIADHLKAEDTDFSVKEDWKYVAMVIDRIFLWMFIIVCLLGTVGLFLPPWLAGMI
T2 sequence (P17787 26-502): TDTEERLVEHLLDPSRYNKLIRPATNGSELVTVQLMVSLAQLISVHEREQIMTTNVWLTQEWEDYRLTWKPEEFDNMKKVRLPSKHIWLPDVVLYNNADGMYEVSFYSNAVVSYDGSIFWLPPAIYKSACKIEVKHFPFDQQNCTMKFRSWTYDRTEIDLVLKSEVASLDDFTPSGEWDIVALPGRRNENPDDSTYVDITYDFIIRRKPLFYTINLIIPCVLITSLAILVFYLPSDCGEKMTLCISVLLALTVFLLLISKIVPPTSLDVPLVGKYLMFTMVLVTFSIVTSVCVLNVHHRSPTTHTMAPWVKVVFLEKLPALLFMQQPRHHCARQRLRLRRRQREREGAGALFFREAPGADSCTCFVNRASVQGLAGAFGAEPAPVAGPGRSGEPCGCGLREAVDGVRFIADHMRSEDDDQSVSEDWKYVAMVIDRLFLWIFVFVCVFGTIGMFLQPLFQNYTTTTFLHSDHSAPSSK
T4 sequence (P43681 27-627 H142A): as the sequence (P43681 27-627) above, with H116A counted along it
T4 sequence (P17787 26-502): as the sequence (P17787 26-502) above
T1 sequence (P43681 27-627 H142L): as the sequence (P43681 27-627) above, with H116L counted along it
T1 sequence (P17787 26-502): as the sequence (P17787 26-502) above
T3 sequence (P43681 27-627 H142V): as the sequence (P43681 27-627) above, with H116V counted along it
T3 sequence (P17787 26-502): as the sequence (P17787 26-502) above

potentiation fold (Ave ± SD), agonist + 1 μM modulator / agonist alone ((α4H116L)3(β2)2 nAChR; ACh (1 mM)): 0.82 ± 0.05
potentiation fold (Ave ± SD), agonist + 1 μM modulator / agonist alone ((α4H116L)3(β2)2 nAChR; TC 2559 (30 μM)): 4.58 ± 0.24
maximal potentiation ((α4)3(β2)2 nAChR; 1 μM TC-2559): 880 ± 13%
maximal potentiation equivalent, % of current elicited by 1 mM ACh ((α4)3(β2)2 nAChR; 1 μM TC-2559 + CMPI): 44.6%
maximal potentiation, % of control ((α4)3(β2)2 nAChR; 1 μM cytisine): 716 ± 59%
effect on responses to agonists at subsaturating concentrations ((α4)3(β2)2 nAChR; 1 μM modulator, ACh, nicotine, cytisine, TC-2559, p < 0.001): potentiated
effect on responses to saturating concentrations of the tested agonists ((α4)3(β2)2 nAChR; 1 μM modulator, except for TC-2559): did not potentiate
maximal potentiation, % of control ((α4)3(β2)2 nAChR; 1 μM nicotine): 618 ± 34%
maximal potentiation ((α4)3(β2)2 nAChR; 10 μM TC-2559): 634 ± 94%
maximal potentiation equivalent, % of current elicited by 1 mM ACh ((α4)3(β2)2 nAChR; 10 μM TC-2559 + CMPI): 48.4%
potentiation fold (Ave ± SD), agonist + 1 μM modulator / agonist alone ((α4)3(β2)2 nAChR; ACh (1 mM), 1 μM modulator): 0.81 ± 0.15
potentiation fold (Ave ± SD), agonist + 1 μM modulator / agonist alone ((α4)3(β2)2 nAChR; TC 2559 (30 μM), 1 μM modulator): 6.41 ± 2.15
EC50 ((α4)3(β2)2 nAChR; receptors activated by 1 μM cytisine, read-out: EC50 for potentiation): 340 ± 80 nM
EC50 ((α4)3(β2)2 nAChR; receptors activated by 1 μM nicotine, read-out: EC50 for potentiation): 270 ± 40 nM
EC50 ((α4)3(β2)2 nAChR; responses induced by 1 μM TC-2559, read-out: potentiation EC50): 110 ± 10 nM
EC50 ((α4)3(β2)2 nAChR; responses induced by 10 μM TC-2559, read-out: potentiation EC50): 90 ± 40 nM
potentiation fold (Ave ± SD), agonist + 1 μM modulator / agonist alone ((α4H116V)3(β2)2 nAChR; ACh (1 mM)): 0.76 ± 0.05
potentiation fold (Ave ± SD), agonist + 1 μM modulator / agonist alone ((α4H116V)3(β2)2 nAChR; TC 2559 (30 μM)): 3.01 ± 0.39
potentiation fold (Ave ± SD), agonist + 1 μM modulator / agonist alone ((α4H116A)3(β2)2 nAChR; ACh (1 mM)): 1.07 ± 0.13
potentiation fold (Ave ± SD), agonist + 1 μM modulator / agonist alone ((α4H116A)3(β2)2 nAChR; TC 2559 (30 μM)): 0.74 ± 0.13
Imax of potentiation, % of control ((α4H116A)3(β2)2 nAChR; TC-2559-induced current, normalized to 1 μM TC-2559): 634 ± 77%
EC50 ((α4H116A)3(β2)2 nAChR; normalized to 1 μM TC-2559, read-out: EC50 of potentiation of TC-2559-induced current): 200 ± 100 nM
SMILES: Cc1c(-c2cc(-c3ccccc3Cl)no2)cnn1C1CCNCC1 [CMPI, 3-(2-chlorophenyl)-5-(5-methyl-1-(piperidin-4-yl)-1H-pyrrazol-4-yl)isoxazole]
